Results from article PMC12066687 (Frontiers in Immunology, 2025).
Like-named read-outs stand apart in the source and are kept apart here.

What was measured:
VSV-EBOV-GP = experiment: microbe, parasite or virus in culture; format: cell-based, Ebola virus (EBOV/H.sap-tc/COD/76/Yambuku-Mayinga); conditions: for inhibition at 0.2 µM: read-out: Inhibition% (200nM)
Vero cells = conditions: for cytotoxicity: African green monkey
in vitro = conditions: African green monkey
EBOV-GP = EBOV-GP (Zaire ebolavirus, UniProt Q05320); experiment: biochemical; format: binding, Zaire EBOV (strain Mayinga-76)
EBOV-GP, sequence (Q05320 33-650 limits assumed): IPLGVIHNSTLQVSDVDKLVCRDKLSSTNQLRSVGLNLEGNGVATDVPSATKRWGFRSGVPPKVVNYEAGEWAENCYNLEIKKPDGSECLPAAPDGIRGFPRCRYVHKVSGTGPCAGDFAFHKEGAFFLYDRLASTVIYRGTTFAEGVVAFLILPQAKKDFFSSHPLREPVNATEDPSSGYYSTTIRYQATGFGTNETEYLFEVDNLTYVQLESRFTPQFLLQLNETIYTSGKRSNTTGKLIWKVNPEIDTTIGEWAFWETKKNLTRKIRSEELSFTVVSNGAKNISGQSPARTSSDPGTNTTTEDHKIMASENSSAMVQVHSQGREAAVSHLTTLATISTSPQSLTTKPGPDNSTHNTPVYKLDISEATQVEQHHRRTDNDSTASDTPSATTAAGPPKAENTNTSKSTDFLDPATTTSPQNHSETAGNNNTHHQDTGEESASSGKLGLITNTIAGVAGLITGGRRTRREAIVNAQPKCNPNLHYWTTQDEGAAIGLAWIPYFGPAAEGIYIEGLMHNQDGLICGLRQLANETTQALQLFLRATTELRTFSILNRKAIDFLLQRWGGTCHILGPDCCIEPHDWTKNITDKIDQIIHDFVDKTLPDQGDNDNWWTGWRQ

VSV-G = format: cell-based, vesicular stomatitis virus
VSV-LASV-GP = format: cell-based, Lassa virus (LASV) (Josiah)

| Compound | EC50 (VSV-EBOV-GP; Zaire ebolavirus, Vero) | SI (Selectivity index = CC50/EC50) (Vero cells) | CC50 (in vitro) | other results |
| --- | --- | --- | --- | --- |
| CC/C(=C(\c1ccccc1)c1ccc(OCCN(C)C)cc1)c1cccc(NS(=O)(=O)NC2CCN(CC)C2)c1 (centres unmarked) [Compound 12] | 841 nM | 4.8 | 4000 nM |  |
| CC/C(=C(\c1ccccc1)c1ccc(OCCN(C)C)cc1)c1ccc(N=S(=O)(F)N(C)Cc2ccn[nH]2)cc1 (centres unmarked) [Compound C02, CC/C(=C(\c1ccccc1)c1ccc(OCCN(C)C)cc1)c1ccc(N=S(=O)(F)N(C)Cc2ccn[nH]2)cc1] |  |  |  | inhibition at 0.2 µM (VSV-EBOV-GP; Zaire ebolavirus, Vero): 2.05% |
| CC/C(=C(\c1ccccc1)c1ccc(OCCN(C)C)cc1)c1cccc(NS(=O)(=O)NC2CCOC2)c1 (centres unmarked) [Compound 4] | 241 nM |  |  | EC50 (VSV-EBOV-GP): 240 nM |
| CC/C(=C(\c1ccccc1)c1ccc(OCCN(C)C)cc1)c1cccc(NS(=O)(=O)NCc2ncon2)c1 [Compound 3] |  |  |  | EC50 (VSV-EBOV-GP; Zaire ebolavirus, Vero, 16 h): 550 nM |
| CC/C(=C(\c1ccccc1)c1ccc(OCCN(C)C)cc1)c1cccc(NS(=O)(=O)NC2(C)CCOC2)c1 (centres unmarked) [Compound 7] | 268 nM | 31 | 8400 nM |  |
| CC/C(=C(\c1ccccc1)c1ccc(OCCN(C)C)cc1)c1cccc(NS(=O)(=O)N[C@@H]2CCN(C)C2)c1 [Compound 11] | 575 nM | 6.3 | 3600 nM |  |
| CCCN1CCC(NS(=O)(=O)Nc2cccc(/C(CC)=C(/c3ccccc3)c3ccc(OCCN(C)C)cc3)c2)C1 (centres unmarked) [Compound 14] | 618 nM | 5.0 | 3100 nM |  |
| CC/C(=C(\c1ccccc1)c1ccc(OCCN(C)C)cc1)c1cccc(NS(=O)(=O)NC2CCN(CCCO)C2)c1 (centres unmarked) [Compound 15] | 1720 nM | 4.5 | 7700 nM |  |
| CC/C(=C(\c1ccccc1)c1ccc(OCCN(C)C)cc1)c1cccc(NS(=O)(=O)N[C@@H]2CCOC2)c1 [Compound 4R] | 351 nM | 43 | 15000 nM | Kd (EBOV-GP): 6400 nM; cytotoxicity (Vero cells): did not show significant cytotoxicity below 10 µM |
| CC/C(=C(\c1ccccc1)c1ccc(OCCN(C)C)cc1)c1ccc(NS(=O)(=O)NCc2ccn[nH]2)cc1 [Compound B02, CC/C(=C(\c1ccccc1)c1ccc(OCCN(C)C)cc1)c1ccc(NS(=O)(=O)NCc2ccn[nH]2)cc1] |  |  |  | inhibition at 0.2 µM (VSV-EBOV-GP; Zaire ebolavirus, Vero): 4.27% |
| CC/C(=C(\c1ccccc1)c1ccc(OCCN(C)C)cc1)c1ccc(NS(=O)(=O)NCc2n[nH]c(=O)[nH]2)cc1 [Compound D02, CC/C(=C(\c1ccccc1)c1ccc(OCCN(C)C)cc1)c1ccc(NS(=O)(=O)NCc2n[nH]c(=O)[nH]2)cc1] |  |  |  | inhibition at 0.2 µM (VSV-EBOV-GP; Zaire ebolavirus, Vero): -0.485% |
| CC/C(=C(\c1ccccc1)c1ccc(OCCN(C)C)cc1)c1cccc(NS(=O)(=O)NC2COC2)c1 [Compound 5] | 156 nM | 44 | 6800 nM |  |
| CC/C(=C(\c1ccccc1)c1ccc(OCCN(C)C)cc1)c1cccc(NS(=O)(=O)NC2CCCOC2)c1 (centres unmarked) [Compound 2] |  |  |  | EC50 (VSV-EBOV-GP; Zaire ebolavirus, Vero, 16 h): 470 nM |
| CC/C(=C(\c1ccccc1)c1ccc(OCCN(C)C)cc1)c1ccc(N=S(=O)(F)N(C)Cc2n[nH]c(=O)[nH]2)cc1 (centres unmarked) [Compound E02, CC/C(=C(\c1ccccc1)c1ccc(OCCN(C)C)cc1)c1ccc(N=S(=O)(F)N(C)Cc2n[nH]c(=O)[nH]2)cc1] |  |  |  | inhibition at 0.2 µM (VSV-EBOV-GP; Zaire ebolavirus, Vero): 11% |
| CC/C(=C(\c1ccccc1)c1ccc(OCCN(C)C)cc1)c1cccc(NS(=O)(=O)NC2COCC2C)c1 (centres unmarked) [Compound 6] | 201 nM | 70 | 14000 nM |  |
| CC/C(=C(\c1ccccc1)c1ccc(OCCN(C)C)cc1)c1cccc(NS(=O)(=O)N[C@H]2CCN(C(CC)CC)C2)c1 [Compound 13] | 813 nM | 6.5 | 5300 nM |  |
| CC/C(=C(\c1ccccc1)c1ccc(OCCN(C)C)cc1)c1ccc(NS(=O)(=O)NC(C)c2n[nH]c(=O)[nH]2)cc1 (centres unmarked) [Compound F02, CC/C(=C(\c1ccccc1)c1ccc(OCCN(C)C)cc1)c1ccc(NS(=O)(=O)NC(C)c2n[nH]c(=O)[nH]2)cc1] |  |  |  | inhibition at 0.2 µM (VSV-EBOV-GP; Zaire ebolavirus, Vero): 14.1% |
| CC/C(=C(\c1ccccc1)c1ccc(OCCN(C)C)cc1)c1cccc(NS(=O)(=O)N[C@H]2CCOC2)c1 [Compound 4S] | 92 nM | 150 | 14000 nM | Kd (EBOV-GP): 630 nM; affinity enhancement vs tamoxifen (EBOV-GP): 50 fold; inhibition of VLPs displaying VSV-G (VSV-G): selective inhibition of VSV-EBOV-GP but not VSV-G or VSV-LASV-GP; inhibition of VSV-LASV-GP (VSV-LASV-GP): selective inhibition of VSV-EBOV-GP but not VSV-G or VSV-LASV-GP; cytotoxicity (Vero cells): did not show significant cytotoxicity below 10 µM |
| CC/C(=C(\c1ccccc1)c1ccc(OCCN(C)C)cc1)c1cccc(NS(=O)(=O)N[C@H]2CCN(C)C2)c1 [Compound 10] | 664 nM | 4.5 | 3000 nM |  |
| CC/C(=C(\c1ccccc1)c1ccc(OCCN(C)C)cc1)c1cccc(N=S(=O)(F)F)c1 [Compound 1] |  |  |  | EC50 (VSV-EBOV-GP; Zaire ebolavirus, Vero, 16 h): 380 nM; cytotoxicity (Vero cells): did not exhibit cytotoxicity up to 10 µM |
| CC/C(=C(\c1ccccc1)c1ccc(OCCN(C)C)cc1)c1ccccc1 [Tamoxifen, tamoxifen, reference compound] |  |  |  | inhibition of VLPs displaying VSV-G (VSV-G): selective inhibition of VSV-EBOV-GP but not VSV-G or VSV-LASV-GP; inhibition of VSV-LASV-GP (VSV-LASV-GP): selective inhibition of VSV-EBOV-GP but not VSV-G or VSV-LASV-GP |
| CC/C(=C(\c1ccccc1)c1ccc(OCCN(C)C)cc1)c1cccc(NS(=O)(=O)NC2CCN(C(C)C)C2)c1 (centres unmarked) [Compound 9] | 790 nM | 4.3 | 3400 nM |  |
| CC/C(=C(\c1ccccc1)c1ccc(OCCN(C)C)cc1)c1cccc(NS(=O)(=O)NC2CCN(C)C2)c1 (centres unmarked) [Compound 8] | 145 nM | 14 | 2000 nM |  |
